Activity calls are given as the source filed them. Cut-off read from the data, not from the text of the source: actives have a measured IC50 and inactives only a lower limit.

The assay deals with Envelope glycoprotein gp160 (Human immunodeficiency virus 1, UniProt Q6QLK5). The assay is described as follows: cell-free HIV fusion peptide-binding blockers – biochemical, uHTS, fluorescence dequenching, […] (AID 1986).
Sequence of Envelope glycoprotein gp160 (Q6QLK5 whole entry, the tested form may be a part): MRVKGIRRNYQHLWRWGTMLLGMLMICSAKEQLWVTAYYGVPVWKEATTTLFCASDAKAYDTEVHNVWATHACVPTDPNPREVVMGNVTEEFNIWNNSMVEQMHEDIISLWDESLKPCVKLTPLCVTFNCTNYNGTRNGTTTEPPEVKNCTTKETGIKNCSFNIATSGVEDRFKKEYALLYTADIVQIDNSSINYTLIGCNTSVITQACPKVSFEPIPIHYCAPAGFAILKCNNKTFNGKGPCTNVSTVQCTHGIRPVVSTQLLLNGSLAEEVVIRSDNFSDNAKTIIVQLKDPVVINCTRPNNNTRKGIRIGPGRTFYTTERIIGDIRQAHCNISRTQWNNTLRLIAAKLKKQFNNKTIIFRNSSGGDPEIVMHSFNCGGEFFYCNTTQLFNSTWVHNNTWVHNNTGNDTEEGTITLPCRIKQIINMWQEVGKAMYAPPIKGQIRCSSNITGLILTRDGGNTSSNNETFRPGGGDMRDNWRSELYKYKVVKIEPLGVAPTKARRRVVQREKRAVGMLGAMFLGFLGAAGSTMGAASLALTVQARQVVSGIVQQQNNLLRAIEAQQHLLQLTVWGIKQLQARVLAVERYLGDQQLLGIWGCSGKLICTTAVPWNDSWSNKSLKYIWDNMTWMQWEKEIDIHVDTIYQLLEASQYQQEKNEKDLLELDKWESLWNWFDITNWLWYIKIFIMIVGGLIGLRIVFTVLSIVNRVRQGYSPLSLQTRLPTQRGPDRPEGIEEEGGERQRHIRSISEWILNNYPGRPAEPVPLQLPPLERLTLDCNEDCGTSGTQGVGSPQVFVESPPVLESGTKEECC

Turning to `Cc1ccccc1C(=O)Nc1cccc(C(=O)N/N=C/c2cc(Cl)cc([N+](=O)[O-])c2O)c1`, the half-maximal inhibitory concentration (IC50) (in general, the concentration that inhibits the measured activity by half) was 31.3 µM (active).

For the origin of these results see ChEMBL document CHEMBL1201862, “PubChem BioAssay data set” (2004).
